Data published in ChEMBL document CHEMBL1146012, “5-benzylidene-hydantoins as new EGFR inhibitors with antiproliferative activity” (Bioorg Med Chem Lett, 2006).

Biological target: Epidermal growth factor receptor (Homo sapiens, UniProt P00533)
Assay: Inhibition of EGFR-mediated polyGAT phosphorylation at 10 uM

Epidermal growth factor receptor, sequence (P00533 whole entry): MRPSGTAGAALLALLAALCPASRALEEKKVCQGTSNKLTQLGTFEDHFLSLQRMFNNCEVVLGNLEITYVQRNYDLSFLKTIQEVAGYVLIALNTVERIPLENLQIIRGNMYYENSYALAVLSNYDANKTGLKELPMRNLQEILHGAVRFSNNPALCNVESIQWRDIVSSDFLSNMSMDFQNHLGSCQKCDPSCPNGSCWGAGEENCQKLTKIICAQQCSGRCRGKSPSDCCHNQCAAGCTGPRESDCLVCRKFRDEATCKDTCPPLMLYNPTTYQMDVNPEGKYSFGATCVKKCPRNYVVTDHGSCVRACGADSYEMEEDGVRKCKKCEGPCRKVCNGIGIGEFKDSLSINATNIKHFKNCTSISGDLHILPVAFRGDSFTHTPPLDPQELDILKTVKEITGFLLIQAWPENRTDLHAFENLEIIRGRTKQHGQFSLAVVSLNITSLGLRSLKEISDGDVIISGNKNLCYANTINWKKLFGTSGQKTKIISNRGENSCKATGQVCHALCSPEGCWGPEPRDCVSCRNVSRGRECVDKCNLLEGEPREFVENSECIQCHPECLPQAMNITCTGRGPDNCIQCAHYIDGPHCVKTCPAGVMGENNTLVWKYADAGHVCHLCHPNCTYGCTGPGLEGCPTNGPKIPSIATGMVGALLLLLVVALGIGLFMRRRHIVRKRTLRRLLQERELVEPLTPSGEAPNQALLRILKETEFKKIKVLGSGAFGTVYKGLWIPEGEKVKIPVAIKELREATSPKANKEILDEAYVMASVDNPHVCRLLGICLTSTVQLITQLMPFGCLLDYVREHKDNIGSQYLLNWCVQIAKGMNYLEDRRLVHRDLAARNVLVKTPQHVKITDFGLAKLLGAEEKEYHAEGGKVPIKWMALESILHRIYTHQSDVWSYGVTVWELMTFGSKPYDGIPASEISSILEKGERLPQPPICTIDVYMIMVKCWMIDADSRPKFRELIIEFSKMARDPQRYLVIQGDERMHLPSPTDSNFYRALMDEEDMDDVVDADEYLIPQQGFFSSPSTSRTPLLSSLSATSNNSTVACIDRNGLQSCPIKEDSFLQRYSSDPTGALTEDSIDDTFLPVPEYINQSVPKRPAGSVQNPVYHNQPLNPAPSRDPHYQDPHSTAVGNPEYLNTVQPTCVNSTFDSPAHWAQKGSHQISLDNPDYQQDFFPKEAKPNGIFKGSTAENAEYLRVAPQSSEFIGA

IC50: 710 nM
SMILES: O=C1NC(=O)N(CCc2ccccc2)/C1=C/c1ccc(O)cc1
